Here are results for 8 compounds from paper PMC5843698, “Use of QSPR Modeling to Characterize In Vitro Binding of Drugs to a Gut-Restricted Polymer” (Pharmaceutical Research, 2018).

Molecules are shown by their SMILES. “Also recorded” adds a separate entry of the source. Where a name gives a salt, the structure may show the parent alone.

Series [1] can be described thus: pKa determination by titration in aqueous solution (UV or pH monitored). The note with it: aqueous solution, average of three determinations.
Series [2] can be described thus: In vitro binding assay: free test drug recovered after 3 h incubation with and without patiromer in SGF, acetate buffer or SIF. The note with it: for SGF / SIF / AB: QSPR input data; for SGF: test matrix SGF; for Binding categories (level of in vitro interaction with patiromer): across SGF, AB and SIF test matrices; for In Vitro Binding (% Drug Recovered) SGF (pH 3): simulated gastric fluid, final pH 3.0; for In Vitro Binding (% Drug Recovered) SGF (pH 3) / In Vitro Binding (% Drug Recovered) Acetate Buffer (pH 4.5) / In Vitro Binding (% Drug Recovered) SIF (pH 5.9): patiromer 25.2 g/L, 3 h, 37°C, geometric mean of 12 replicates; for In vitro patiromer binding category: strong, weak or non-binding; for SIF: test matrix SIF; for AB: test matrix acetate buffer (AB); for In Vitro Binding (% Drug Recovered) SIF (pH 5.9): simulated intestinal fluid, final pH 5.9.

A short description of series [3]: logD determination (liquid-liquid distribution chromatography, octanol-coated column). Particulars: octanol-coated column with octanol-saturated mobile phase.
Series [4] in a line: logP determination by titration in octanol/water. Particulars: octanol/water.
The conditions of series [5]: test drug given together with patiromer, healthy volunteers; a drug listed in the table cell = AUC reduced; cited from earlier work.
Series [6] is described as follows: Dose-response in vitro patiromer binding across a range of test drug concentrations. Particulars: across a clinically relevant dose range.

For `COC(=O)[C@H](c1ccccc1Cl)N1CCc2sccc2C1` [Clopidogrel bisulfate], the pKa in series [1] (pKa (B = base), basic group) was 4.66. In series [2], the SGF was 66, the “Binding categories (level of in vitro interaction with patiromer)” value (shortened to “Binding categories”) is given as “Weak binder (30–55% bound in one test matrix)”, the “In Vitro Binding (% Drug Recovered) SGF (pH 3)” value is 66% and the “In vitro patiromer binding category” value is on record as “Weak binders”. The compound further had a chromatographic logD in series [3] (pH 3) of 2.4. Also, the chromatographic logD in series [3] (pH 4.5) amounted to 3.67. The compound further returned a chromatographic logD in series [3] (pH 5.9) of 4.03. Also, the logP in series [4] was found to be 4.06.

`N[C@@H](Cc1cc(I)c(Oc2cc(I)c(O)c(I)c2)c(I)c1)C(=O)O` [Levothyroxine sodium] had a pKa in series [1] (pKa (B = base), basic group) of 8.73. Also, the “Behaviour of drug in the presence of patiromer and its calcium counter-ion” value in series [2] (in vitro binding assay conditions) was “precipitated in the presence of patiromer and its calcium counter-ion”. Besides, the chromatographic logD is 3.44 in series [3] (pH 3), 3.44 in series [3] (pH 4.5) and 3.37 in series [3] (pH 5.9). Besides, in series [5], the “AUC reduced when co-administration (lower bound of the 90% CI <80%)” value is “Ciprofloxacin, 500 mg Levothyroxine, 0.6 mg”. In series [4], this compound showed a logP of 3.44.

With `NCCCC[C@H](N[C@@H](CCc1ccccc1)C(=O)O)C(=O)N1CCC[C@H]1C(=O)O` [Lisinopril], the pKa in series [1] (pKa (A = acid), acidic group) came to 1.63. This compound gave a pKa in series [1] (pKa (B = base), basic group) of 7.13. In series [2], the SGF is given as 77.9, the SIF is on record as 98.5, the AB is given as 100.7 and the “In Vitro Binding (% Drug Recovered) Acetate Buffer (pH 4.5)” value is 100.7%. Besides, in series [2], the “Binding categories” value was “No binding (<30% drug bound in any test matrix)”, the “In Vitro Binding (% Drug Recovered) SGF (pH 3)” value is on record as 77.9% and the “In Vitro Binding (% Drug Recovered) SIF (pH 5.9)” value is 98.5%. This compound had a chromatographic logD in series [3] (pH 3) of -0.85. This compound also showed a chromatographic logD in series [3] (pH 4.5) of -0.52. For the same compound, the chromatographic logD in series [3] (pH 5.9) is -0.54. The compound further displayed a logP in series [4] of -0.51.

Regarding `CN(C)C(=N)N=C(N)N` [Metformin HCl], in series [2], the SGF is listed as 48.9, the SIF worked out at 80.2, the AB came out at 81.8 and the “In Vitro Binding (% Drug Recovered) Acetate Buffer (pH 4.5)” value was 81.8%. In series [2], the “Binding categories” value was “Weak binder (30–55% bound in one test matrix)”, the “In Vitro Binding (% Drug Recovered) SGF (pH 3)” value was 48.9%, the “In Vitro Binding (% Drug Recovered) SIF (pH 5.9)” value is 80.2% and the “In vitro patiromer binding category” value is listed as “weak binder”. The “AUC reduced when co-administration (lower bound of the 90% CI <80%)” value in series [5] is reported as “moderate reduction in AUC; also recorded: Metformin, 1000 mg”.

In turn, `O=C1NC(=O)C(c2ccccc2)(c2ccccc2)N1` [Phenytoin sodium] returned a pKa in series [1] (pKa (A = acid), acidic group) of 8.18. In series [2], the SGF was determined as 83.4, the SIF was 92.8, the AB stood at 90.2 and the “In Vitro Binding (% Drug Recovered) Acetate Buffer (pH 4.5)” value is 90.2%. Further, in series [2], the “Binding categories” value is recorded as “No binding (<30% drug bound in any test matrix)”, the “In Vitro Binding (% Drug Recovered) SGF (pH 3)” value is listed as 83.4% and the “In Vitro Binding (% Drug Recovered) SIF (pH 5.9)” value is 92.8%. Besides, the chromatographic logD in series [3] (pH 3) is 2.43. The compound further had a chromatographic logD in series [3] (pH 4.5) of 2.43. This compound came in with a chromatographic logD in series [3] (pH 5.9) of 2.43. The same compound showed a logP in series [4] of 2.43.

Consider `C=C[C@H]1C[N@@]2CC[C@H]1C[C@@H]2[C@@H](O)c1ccnc2ccc(OC)cc12` [Quinidine], for which, in series [2], the SGF amounted to 12.6, the SIF was 24.3, the “In Vitro Binding (% Drug Recovered) SGF (pH 3)” value is given as 12.6% and the “In Vitro Binding (% Drug Recovered) SIF (pH 5.9)” value is 24.3%. In addition, in series [2], the “In vitro patiromer binding category” value is on record as “strong binders”. The “Concentration dependence of in vitro binding to patiromer” value in series [6] is “did not show strong concentration dependence”.

Consider `Cc1ncc(C[n+]2csc(CCO)c2C)c(N)n1` [Thiamin], for which the pKa in series [1] (pKa (B = base), basic group) was found to be 4.88. In series [2], the “In Vitro Binding (% Drug Recovered) Acetate Buffer (pH 4.5)” value is on record as 50.7%, the “In Vitro Binding (% Drug Recovered) SGF (pH 3)” value is recorded as 28.8% and the “In Vitro Binding (% Drug Recovered) SIF (pH 5.9)” value is reported as 42.9%. Besides, the chromatographic logD in series [3] (pH 3) was less than -1.5. For the same compound, the chromatographic logD in series [3] (pH 4.5) is less than -1.5. In series [3] (pH 5.9), this compound returned a chromatographic logD of less than -1.5. In series [4], this compound showed a logP of less than -1.5.

Take `COc1cc(Cc2cnc(N)nc2N)cc(OC)c1OC` [Trimethoprim]: in series [2], the SGF amounted to 36.3, the SIF was determined as 28.4, the AB amounted to 55.3 and the “In Vitro Binding (% Drug Recovered) Acetate Buffer (pH 4.5)” value is on record as 55.3%. Also, in series [2], the “In Vitro Binding (% Drug Recovered) SGF (pH 3)” value is on record as 36.3%, the “In Vitro Binding (% Drug Recovered) SIF (pH 5.9)” value is reported as 28.4% and the “In vitro patiromer binding category” value was “strong binders”. Also, the “Concentration dependence of in vitro binding to patiromer” value in series [6] was “did not show strong concentration dependence”.

One may read the pKa as the pH at which an ionisable group is half protonated. For orientation: chromatographic logD means lipophilicity estimated from chromatographic retention. A high value points to higher lipophilicity. The logP is a log measure of how a compound divides between an organic and an aqueous phase. A high value points to higher lipophilicity.
